Reference: paper PMC5865166, “MultiBacMam Bimolecular Fluorescence Complementation (BiFC) tool-kit identifies new small-molecule inhibitors of the CDK5-p25 protein-protein interaction (PPI)” (Scientific Reports, 2018)

Legend:
MLKL-RIPK3 PPI = target: T1, MLKL-RIPK3 PPI (Homo sapiens, UniProt Q8NB16+Q9Y572); experiment: MLKL-RIPK3 BiFC counter assay in transduced U2OS cells (VN-MLKL/VC-RIPK3); type: cell-based; conditions: counter screen, 16h treatment; CPDs even at high concentration
T1 construct: expressed in transfected cells; host or cells: U2OS cells transduced with MultiBacMam baculovirus
Protocol: (§1) Experiments were carried out in sterile, black clear-bottom 384 well plates (Cell carrier™ Perkin Elmer). U2OS cells were seed at density of cells 5 × 10^4 cells/well. After 3 hours, attached cells were transduced with 20 µl/well of viral stock dilution in PBS (Gibco) at multiplicity of infection (MOI) of 500 MOI. After were centrifuged during 30′ at 1500 rpm. Then plates were incubated at 37 °C during 5 hours. Thereafter the virus solution was replaced with 40 ul of complete growth medium containing 3 mM sodium butyrate (ABCR) with or without compound depending of the experiment. Cells were incubated for 16 hours at 37 °C with 5% of CO2. Finally plates were fixed with 4% paraformaldehyde (PFA) and stained with 5 µM Hoechst 33342 (Sigma-Aldrich). After 10 minutes of incubation at room temperature, plates were washed with PBS (GiBCO) and stored at 4 °C until imaging. […]
(§2) Cells were transduced or transfected and fixed as described above. Cells were stored in PBS until automated fluorescence microscopy analysis with Opera. Fluorescence images were acquired using the Opera QEHS reader (Perkin-Elmer) using a 20x objective. […]
(§3) Supplementary Figure S3. […] Then cells were treated with indicated amounts of compounds for 16h and percentage of BiFC positive cells was determined by High Content image analysis.

Tau dimerization = experiment: Tau BiFC counter assay in transduced U2OS cells (VN-TAU/VC-TAU); type: cell-based; conditions: counter screen, 16h treatment; CPDs even at high concentration
Protocol: as §1, §2, §3

CDK5-p25 PPI = target: T2, CDK5-p25 PPI (Homo sapiens, UniProt Q00535+Q15078, D144N); experiment: MultiBacMam BiFC assay of CDK5-p25 PPI in transduced U2OS cells (VN-CDK5(D144N)/VC-p25); conditions: mammalian cell-based BiFC assay, versus published yeast-based data
T2 construct: The cleavage of p35 by the protease calpain generates p25; expressed in transfected cells; host or cells: U2OS cells transduced with MultiBacMam baculovirus
Protocol: as §1, with “imaging. For the immunostaining against p25 cells were permeabilized and stained with PBS, BSA 0.2% and Triton-X 100 0.5% and p35 (C-19) antibody from Santa Cruz Biotechnology (diluted 1:100 and incubated at 4 °C o/n).” for “imaging.”
as §2

U2OS cells = experiment: Total cell number / cytotoxicity in BiFC experiments; type: cell-based; conditions: prohibited increasing the compound concentration to above 13 µM
Protocol: Experiments were carried out in sterile, black clear-bottom 384 well plates (Cell carrier™ Perkin Elmer). U2OS cells were seed at density of cells 5 × 10^4 cells/well. After 3 hours, attached cells were transduced with 20 µl/well of viral stock dilution in PBS (Gibco) at multiplicity of infection (MOI) of 500 MOI. After were centrifuged during 30′ at 1500 rpm. Then plates were incubated at 37 °C during 5 hours. Thereafter the virus solution was replaced with 40 ul of complete growth medium containing 3 mM sodium butyrate (ABCR) with or without compound depending of the experiment. Cells were incubated for 16 hours at 37 °C with 5% of CO2. Finally plates were fixed with 4% paraformaldehyde (PFA) and stained with 5 µM Hoechst 33342 (Sigma-Aldrich). After 10 minutes of incubation at room temperature, plates were washed with PBS (GiBCO) and stored at 4 °C until imaging. For the immunostaining against p25 cells were permeabilized and stained with PBS, BSA 0.2% and Triton-X 100 0.5% and p35 (C-19) antibody from Santa Cruz Biotechnology (diluted 1:100 and incubated at 4 °C o/n). Then, the plates were incubated for 2 hrs at 37 °C with a donkey anti-rabbit conjugated with the alexa fluor 647 secondary antibody (Invitrogen). Finally plates were washed with PBS and stored at 4 °C until imaging.
Supplementary Figure S2. Total cell number in BiFC experiments. […]

T1 sequence (Q8NB16 whole entry): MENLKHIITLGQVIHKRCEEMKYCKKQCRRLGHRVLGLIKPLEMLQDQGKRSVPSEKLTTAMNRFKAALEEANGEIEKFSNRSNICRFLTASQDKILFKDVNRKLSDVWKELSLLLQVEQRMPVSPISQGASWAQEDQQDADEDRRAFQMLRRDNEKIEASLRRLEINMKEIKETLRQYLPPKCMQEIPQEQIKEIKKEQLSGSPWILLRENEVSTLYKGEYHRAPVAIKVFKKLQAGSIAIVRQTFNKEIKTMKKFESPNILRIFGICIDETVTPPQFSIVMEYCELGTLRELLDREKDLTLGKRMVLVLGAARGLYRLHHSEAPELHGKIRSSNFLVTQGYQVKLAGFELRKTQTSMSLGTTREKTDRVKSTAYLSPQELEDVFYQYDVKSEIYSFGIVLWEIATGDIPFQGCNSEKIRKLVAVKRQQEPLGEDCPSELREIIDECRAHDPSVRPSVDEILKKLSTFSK
T1 sequence (Q9Y572 whole entry): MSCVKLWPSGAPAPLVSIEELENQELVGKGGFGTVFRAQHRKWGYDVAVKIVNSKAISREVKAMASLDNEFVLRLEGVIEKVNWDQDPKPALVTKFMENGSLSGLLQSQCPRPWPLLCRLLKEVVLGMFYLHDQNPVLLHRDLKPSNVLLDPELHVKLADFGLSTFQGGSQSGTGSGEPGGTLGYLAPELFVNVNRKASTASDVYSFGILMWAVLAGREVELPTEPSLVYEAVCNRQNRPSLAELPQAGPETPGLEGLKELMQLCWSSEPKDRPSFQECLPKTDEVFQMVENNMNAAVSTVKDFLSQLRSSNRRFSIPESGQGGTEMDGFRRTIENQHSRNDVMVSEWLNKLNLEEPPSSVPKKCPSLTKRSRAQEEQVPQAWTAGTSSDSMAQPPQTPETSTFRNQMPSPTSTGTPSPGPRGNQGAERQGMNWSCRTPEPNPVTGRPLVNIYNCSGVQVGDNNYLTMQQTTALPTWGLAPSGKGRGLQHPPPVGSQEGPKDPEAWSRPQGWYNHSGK
T2 sequence (Q00535 whole entry D144N): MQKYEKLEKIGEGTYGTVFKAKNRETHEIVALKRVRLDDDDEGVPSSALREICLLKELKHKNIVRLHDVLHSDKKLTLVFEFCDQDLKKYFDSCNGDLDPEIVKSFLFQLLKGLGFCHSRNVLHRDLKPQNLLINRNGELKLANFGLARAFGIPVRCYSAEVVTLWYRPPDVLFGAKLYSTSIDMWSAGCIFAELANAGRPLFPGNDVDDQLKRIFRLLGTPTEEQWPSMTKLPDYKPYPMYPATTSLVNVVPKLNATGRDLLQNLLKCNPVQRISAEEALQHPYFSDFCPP
T2 sequence (Q15078 99-307 limits assumed): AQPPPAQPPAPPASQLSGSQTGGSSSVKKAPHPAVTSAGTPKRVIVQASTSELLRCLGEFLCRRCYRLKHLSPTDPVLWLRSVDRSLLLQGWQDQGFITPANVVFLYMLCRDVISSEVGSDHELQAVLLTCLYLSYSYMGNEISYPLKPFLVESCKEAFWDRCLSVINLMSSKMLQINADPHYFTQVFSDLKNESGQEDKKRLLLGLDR

## CC(C)CC(=O)Nc1[nH]nc2c1CN(C(=O)C1CCN(C)CC1)C2(C)C [pHA-793887]
MLKL-RIPK3 PPI
  effect on MLKL-RIPK3 PPI: non-specific fluorescence complementation inhibitor
Tau dimerization
  effect on Tau dimerization: non-specific fluorescence complementation inhibitor

## C[C@@]12CCC[C@H]1[C@@H]1CC[C@H]3C[C@H](N)CC[C@]3(C)[C@H]1CC2 [3α-amino-5α-androstane]
CDK5-p25 PPI
  inhibitory effect on CDK5-p25 PPI: did not reproduce this published data
U2OS cells
  toxic effect on the cells: toxic effect
